Assay results from ChEMBL document CHEMBL5528042, “Identification of Novel, Selective Ataxia-Telangiectasia Mutated Kinase Inhibitors with the Ability to Penetrate the Blood-Brain Barrier: The Discovery of AZD1390” (J Med Chem, 2024).
In brackets after ≈: the same amount, converted by molar mass.

Legend:
[1] = Apparent permeability across apical to basolateral side in dog MDCKII-MDR1 cells overexpressing BCRP at 0.1 uM incubated for 90 mins by LC-MS/MS analysis; format: ADME, cell-based, Canis lupus familiaris, MDCK-MDR1
[2] = Lipophilicity, logD of the compound at pH 7.4; format: physicochemical; settings: buffer
[3] = Apparent permeability across apical to basolateral side in dog MDCKII-MDR1 cells overexpressing BCRP at 1 uM incubated for 90 mins by LC-MS/MS analysis; format: ADME, cell-based, Canis lupus familiaris, MDCK-MDR1
MDR1, BCRP [4] = experiment: Efflux ratio of apparent permeability across basolateral to apical side over apical to basolateral side in dog MDCKII-MDR1 cells overexpressing BCRP at 1 uM incubated for 90 mins by LC-MS/MS analysis; format: ADME, cell-based, Canis lupus familiaris, MDCK-MDR1
[5] = Intrinsic clearance in human hepatocyte assessed per 10^6 cells; format: ADME, cell-based; settings: hepatocytes, read-out: CLH
[6] = Intrinsic clearance in rat hepatocyte assessed per 10^6 cells; format: ADME, cell-based; settings: hepatocytes, read-out: CLH
[7] = Aqueous solubility of the compound in pH 7.4; format: physicochemical; settings: buffer
MDR1, BCRP [8] = experiment: Efflux ratio of apparent permeability across basolateral to apical side over apical to basolateral side in dog MDCKII-MDR1 cells overexpressing BCRP at 0.1 uM incubated for 90 mins by LC-MS/MS analysis; format: ADME, cell-based, Canis lupus familiaris, MDCK-MDR1
[9] = molecular target: Serine/threonine-protein kinase ATR (Homo sapiens, UniProt Q13535); experiment: Inhibition of ATR in human HT-29 cells incubated for 2 hrs by Alexa Fluor 488/Hoeschst staining based plate reader assay; format: cell-based
[10] = molecular target: Serine-protein kinase ATM (Homo sapiens, UniProt Q13315); experiment: Inhibition of ATM in human HT-29 cells incubated for 2 hrs by Alexa Fluor 488/Hoeschst staining based plate reader assay; format: cell-based
[11] = Dissociation constant, pKa of compound; format: physicochemical
[12] = Intrinsic clearance in human liver microsomes; format: ADME, Microsome; settings: read-out: CLH
[13] = Unbound brain to plasma drug concentration ratio in mouse at 50 mg/kg,po administration and measured after 2 hrs; format: ADME, organism-based; settings: read-out: K(p,uu,brain)
[14] = Tmax in Cynomolgus monkey at iv administered as bolus injection measured at 4 to 90 mins by gamma counter analysis; format: ADME, organism-based, Macaca fascicularis; settings: in vivo, time 4-90 min
[15] = Unbound fraction in Cynomolgus monkey plasma at iv administered as bolus injection measured at 4 to 90 mins by PET analysis; format: ADME, organism-based, Macaca fascicularis; settings: time 4-90 min
[16] = Unbound brain to plasma drug concentration ratio in Cynomolgus monkey at iv administered as bolus injection measured at 4 to 90 mins by PET analysis; format: ADME, organism-based, Macaca fascicularis; settings: time 4-90 min, read-out: K(p,uu,brain)
[17] = Unbound fraction in Cynomolgus monkey brain at iv administered as bolus injection measured at 4 to 90 mins by PET analysis; format: ADME, organism-based, Macaca fascicularis; settings: time 4-90 min
[18] = Plasma protein binding in rat assessed as unbound fraction incubated for 16 hrs by equilibrium dialysis based UPLC-MS/MS analysis; format: ADME, cell-free
[19] = molecular target: Phosphatidylinositol 4,5-bisphosphate 3-kinase catalytic subunit alpha isoform (Homo sapiens, UniProt P42336); experiment: Inhibition of PI3Kalpha in human BT-474 cells incubated for 140 mins by ELISA; format: cell-based
[20] = Half life in rat at 1 mg/kg,po or 0.5 mg/kg,iv administration measured for 24 hrs by LC-MS/MS analysis; format: ADME, organism-based; settings: in vivo
[21] = Plasma protein binding in dog assessed as unbound fraction incubated for 16 hrs by equilibrium dialysis based UPLC-MS/MS analysis; format: ADME, cell-free, Canis lupus familiaris
[22] = Volume of distribution at steady state in dog at 2 mg/kg,po or 1 mg/kg,iv administration measured for 24 hrs by LC-MS/MS analysis; format: ADME, organism-based, Canis lupus familiaris; settings: in vivo
[23] = molecular target: Serine/threonine-protein kinase mTOR (Homo sapiens, UniProt P42345); experiment: Inhibition of mTOR in human MDA-MB-468 cells incubated for 2.5 hrs by Alexa Fluor 488 staining based fluorescence analysis; format: cell-based
[24] = Bioavailability in rat at 1 mg/kg,po or 0.5 mg/kg,iv administration measured for 24 hrs by LC-MS/MS analysis; format: ADME, organism-based; settings: in vivo
[25] = Volume of distribution at steady state in rat at 1 mg/kg,po or 0.5 mg/kg,iv administration measured for 24 hrs by LC-MS/MS analysis; format: ADME, organism-based; settings: in vivo
[26] = Plasma protein binding in human assessed as unbound fraction incubated for 16 hrs by equilibrium dialysis based UPLC-MS/MS analysis; format: ADME, cell-free
[27] = Half life in dog at 2 mg/kg,po or 1 mg/kg,iv administration measured for 24 hrs by LC-MS/MS analysis; format: ADME, organism-based, Canis lupus familiaris; settings: in vivo
[28] = Intrinsic clearance in dog hepatocyte assessed per 10^6 cells; format: ADME, cell-based, Canis lupus familiaris; settings: hepatocytes, read-out: CLH

Serine/threonine-protein kinase ATR, sequence (Q13535 whole entry): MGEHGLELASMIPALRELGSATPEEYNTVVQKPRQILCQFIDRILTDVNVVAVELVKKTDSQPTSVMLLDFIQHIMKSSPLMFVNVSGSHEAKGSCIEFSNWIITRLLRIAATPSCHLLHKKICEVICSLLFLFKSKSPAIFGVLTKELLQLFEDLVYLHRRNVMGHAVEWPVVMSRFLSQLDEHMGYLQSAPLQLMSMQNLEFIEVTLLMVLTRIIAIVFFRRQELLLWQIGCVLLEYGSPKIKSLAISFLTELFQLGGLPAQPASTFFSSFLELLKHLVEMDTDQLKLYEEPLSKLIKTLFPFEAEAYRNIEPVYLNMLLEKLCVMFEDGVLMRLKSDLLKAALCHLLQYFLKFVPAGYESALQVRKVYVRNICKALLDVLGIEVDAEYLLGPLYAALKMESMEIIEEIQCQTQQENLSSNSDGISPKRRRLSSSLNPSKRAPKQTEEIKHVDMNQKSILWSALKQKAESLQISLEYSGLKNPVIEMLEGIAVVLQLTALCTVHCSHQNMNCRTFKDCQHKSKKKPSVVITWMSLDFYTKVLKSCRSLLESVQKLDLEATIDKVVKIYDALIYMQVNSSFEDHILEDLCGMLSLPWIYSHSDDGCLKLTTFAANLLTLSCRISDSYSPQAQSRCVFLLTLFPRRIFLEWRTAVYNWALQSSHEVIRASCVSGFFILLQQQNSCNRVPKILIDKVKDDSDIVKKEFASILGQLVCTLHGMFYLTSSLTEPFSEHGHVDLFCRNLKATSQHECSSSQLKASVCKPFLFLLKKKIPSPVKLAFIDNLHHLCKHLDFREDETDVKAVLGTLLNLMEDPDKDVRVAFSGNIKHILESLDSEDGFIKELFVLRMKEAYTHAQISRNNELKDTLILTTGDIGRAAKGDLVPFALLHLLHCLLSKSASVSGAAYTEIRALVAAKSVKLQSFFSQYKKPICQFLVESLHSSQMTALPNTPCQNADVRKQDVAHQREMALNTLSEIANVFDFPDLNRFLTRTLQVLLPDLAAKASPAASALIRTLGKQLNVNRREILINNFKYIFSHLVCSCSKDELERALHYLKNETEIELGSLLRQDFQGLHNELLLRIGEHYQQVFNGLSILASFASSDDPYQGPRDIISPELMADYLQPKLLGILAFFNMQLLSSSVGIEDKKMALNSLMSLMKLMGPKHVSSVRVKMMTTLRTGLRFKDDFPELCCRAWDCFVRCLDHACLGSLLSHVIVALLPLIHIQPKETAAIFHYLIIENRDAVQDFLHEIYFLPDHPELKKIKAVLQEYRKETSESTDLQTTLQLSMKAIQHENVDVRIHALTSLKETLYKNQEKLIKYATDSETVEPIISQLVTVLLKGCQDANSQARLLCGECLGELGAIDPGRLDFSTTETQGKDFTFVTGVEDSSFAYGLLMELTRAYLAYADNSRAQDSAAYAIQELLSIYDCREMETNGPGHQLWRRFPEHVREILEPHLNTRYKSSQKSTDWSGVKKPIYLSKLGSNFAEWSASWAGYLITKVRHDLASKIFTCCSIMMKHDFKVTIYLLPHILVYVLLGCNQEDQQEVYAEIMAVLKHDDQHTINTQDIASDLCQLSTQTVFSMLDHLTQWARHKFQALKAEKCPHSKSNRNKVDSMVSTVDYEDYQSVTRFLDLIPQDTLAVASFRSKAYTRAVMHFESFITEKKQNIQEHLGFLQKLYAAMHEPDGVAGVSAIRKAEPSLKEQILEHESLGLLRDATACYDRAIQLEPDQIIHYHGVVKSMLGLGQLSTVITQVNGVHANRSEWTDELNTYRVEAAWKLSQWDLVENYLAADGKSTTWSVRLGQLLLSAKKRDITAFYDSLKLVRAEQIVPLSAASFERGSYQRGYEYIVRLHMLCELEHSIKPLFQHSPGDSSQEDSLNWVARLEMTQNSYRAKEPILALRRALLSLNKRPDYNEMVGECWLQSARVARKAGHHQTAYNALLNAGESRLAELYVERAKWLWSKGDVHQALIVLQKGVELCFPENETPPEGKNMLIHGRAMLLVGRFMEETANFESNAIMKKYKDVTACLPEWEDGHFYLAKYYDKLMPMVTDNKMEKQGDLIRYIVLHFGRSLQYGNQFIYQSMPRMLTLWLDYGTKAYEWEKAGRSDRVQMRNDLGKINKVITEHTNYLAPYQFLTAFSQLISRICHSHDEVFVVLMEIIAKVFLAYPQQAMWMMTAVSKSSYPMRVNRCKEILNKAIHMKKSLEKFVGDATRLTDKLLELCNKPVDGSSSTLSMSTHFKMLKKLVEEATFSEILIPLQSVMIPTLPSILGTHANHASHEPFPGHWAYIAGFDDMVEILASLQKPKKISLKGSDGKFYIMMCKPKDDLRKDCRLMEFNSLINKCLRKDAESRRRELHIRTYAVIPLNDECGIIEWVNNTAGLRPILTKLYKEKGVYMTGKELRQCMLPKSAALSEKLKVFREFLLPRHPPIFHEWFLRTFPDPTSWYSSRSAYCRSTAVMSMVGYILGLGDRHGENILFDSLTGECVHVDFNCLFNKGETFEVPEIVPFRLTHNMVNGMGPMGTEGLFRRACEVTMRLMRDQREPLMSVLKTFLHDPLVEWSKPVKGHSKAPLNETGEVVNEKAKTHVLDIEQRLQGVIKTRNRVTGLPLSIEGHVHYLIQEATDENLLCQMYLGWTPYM
Phosphatidylinositol 4,5-bisphosphate 3-kinase catalytic subunit alpha isoform, sequence (P42336 whole entry, canonical isoform): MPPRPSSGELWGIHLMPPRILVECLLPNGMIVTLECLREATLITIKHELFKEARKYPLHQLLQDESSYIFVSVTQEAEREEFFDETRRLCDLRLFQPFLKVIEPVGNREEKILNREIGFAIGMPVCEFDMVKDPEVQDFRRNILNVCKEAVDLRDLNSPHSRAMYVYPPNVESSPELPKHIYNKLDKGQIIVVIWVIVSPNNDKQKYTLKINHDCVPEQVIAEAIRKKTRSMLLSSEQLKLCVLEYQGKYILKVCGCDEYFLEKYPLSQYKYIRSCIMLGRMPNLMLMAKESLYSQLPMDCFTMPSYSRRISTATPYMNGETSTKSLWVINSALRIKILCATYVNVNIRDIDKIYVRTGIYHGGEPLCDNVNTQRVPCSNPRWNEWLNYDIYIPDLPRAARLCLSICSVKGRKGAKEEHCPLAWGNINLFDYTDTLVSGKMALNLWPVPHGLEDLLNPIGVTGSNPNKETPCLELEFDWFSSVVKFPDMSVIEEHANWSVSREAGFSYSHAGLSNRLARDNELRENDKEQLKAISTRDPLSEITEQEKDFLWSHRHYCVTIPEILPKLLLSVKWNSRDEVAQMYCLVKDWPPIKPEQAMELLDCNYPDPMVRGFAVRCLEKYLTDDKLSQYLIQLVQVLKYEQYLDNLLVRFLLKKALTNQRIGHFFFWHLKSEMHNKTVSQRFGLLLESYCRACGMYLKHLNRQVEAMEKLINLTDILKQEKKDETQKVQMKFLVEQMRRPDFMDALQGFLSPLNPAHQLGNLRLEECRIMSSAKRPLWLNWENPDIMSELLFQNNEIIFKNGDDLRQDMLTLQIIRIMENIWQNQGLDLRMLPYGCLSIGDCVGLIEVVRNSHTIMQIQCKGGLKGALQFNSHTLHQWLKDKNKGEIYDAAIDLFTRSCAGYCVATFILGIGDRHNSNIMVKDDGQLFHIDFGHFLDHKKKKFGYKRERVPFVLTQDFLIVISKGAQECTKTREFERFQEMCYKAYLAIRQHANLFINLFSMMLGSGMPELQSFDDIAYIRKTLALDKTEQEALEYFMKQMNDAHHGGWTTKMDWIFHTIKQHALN

In the case of CC(C)n1c(=O)n(C)c2cnc3ccc(-c4ccc(OCCCN5CCCC5)nc4)cc3c21, the Papp A→B at […], 0.1 µM [1] is reported as 24 ×10⁻⁶ cm/s, the logD [2] is reported as 2 and the Papp A→B at […], 1 µM [3] is reported as 25 ×10⁻⁶ cm/s. The efflux ratio at […], 1 µM (MDR1, BCRP [4]) was 0.8, the hepatocyte CLint [5] was 2.6 µL/min/1e6 cells and the hepatocyte CLint [6] was 1.8 µL/min/1e6 cells. It also gave a solubility [7] of 499 µM (≈ 222 µg/mL), an efflux ratio at […], 0.1 µM (MDR1, BCRP [8]) of 2.6 and an IC50 [9] greater than 31600 nM. It also gave an IC50 [10] of 0.251 nM.
Work on CC(C)n1c(=O)n(C)c2cnc3ccc(-c4ccc(OCCCN5CC[C@H](F)C5)nc4)cc3c21 yielded a Papp A→B at […], 0.1 µM [1] of 19 ×10⁻⁶ cm/s, a logD [2] of 3 and a pKa [11] of 8.1. For the same compound, the hepatocyte CLint [5] was 7.2 µL/min/1e6 cells, the hepatocyte CLint [6] was 20 µL/min/1e6 cells and the solubility [7] was 43 µM (≈ 19.9 µg/mL). For the same compound, the microsomal CLint [12] was 65 µL/min/mg and the IC50 [9] was greater than 20000 nM.
For CC(C)n1c(=O)n(C)c2cnc3ccc(-c4ccc(OCCCN5CCC(F)CC5)nc4)cc3c21, the Papp A→B at […], 0.1 µM [1] was 14 ×10⁻⁶ cm/s, the logD [2] was 3.3 and the Papp A→B at […], 1 µM [3] was 13 ×10⁻⁶ cm/s. For the same compound, the pKa [11] was 8.5, the hepatocyte CLint [5] was 8.5 µL/min/1e6 cells and the hepatocyte CLint [6] was 29 µL/min/1e6 cells. The solubility [7] was 15 µM (≈ 7.16 µg/mL) and the microsomal CLint [12] was 100 µL/min/mg.
For Cn1c(=O)n(C2CCOCC2)c2c3cc(-c4cccnc4)ccc3ncc21, the logD [2] was 2.2 and the Kp uu at 2 h [13] was 0.67.
Work on CC(C)n1c(=O)n([11CH3])c2cnc3cc(F)c(-c4ccc(OCCCN5CCCCC5)nc4)cc3c21 yielded a Tmax [14] of 9.3 min, a fraction unbound [15] of 0.175 and a Kp uu [16] of 0.33. The fraction unbound [17] was 0.01.
CC(C)n1c(=O)n(C)c2cnc3ccc(-c4ccc(N5CC[C@@H](N(C)C)C5)nc4)cc3c21 gave a fraction unbound at 16 h [18] of 0.004, an IC50 [19] of 316 nM and a logD [2] of 3. For the same compound, the Papp A→B at […], 1 µM [3] was 27 ×10⁻⁶ cm/s, the half-life [20] was 2.9 h and the pKa [11] was 7.9. For the same compound, the fraction unbound at 16 h [21] was 0.26, the Vdss [22] was 7.5 L/kg and the IC50 [23] was 3160 nM. The bioavailability [24] was 53%, the hepatocyte CLint [5] was 4.5 µL/min/1e6 cells and the hepatocyte CLint [6] was 27 µL/min/1e6 cells. It also gave a solubility [7] of 22 µM (≈ 9.47 µg/mL), a Vdss [25] of 0.6 L/kg and a fraction unbound at 16 h [26] of 0.07. The half-life [27] was 1.6 h and the hepatocyte CLint [28] was 80 µL/min/1e6 cells.
CC(C)n1c(=O)n([11CH3])c2cnc3cc(F)c(-c4ccc(OCCCN(C)C)nc4)cc3c21 gave a Tmax [14] of 4.5 min, a fraction unbound [15] of 0.195 and a Kp uu [16] of 0.41. For the same compound, the fraction unbound [17] was 0.02.
